Data reported in patent publication US11793782B2, “Therapeutic agents for neurodegenerative diseases” (priority 2017, dated 2023).

What was measured:
[1] = test system: Npc1−/− mouse; experiment: Lifespan and symptom onset of Npc1−/− mouse; assay type: in vivo
Description: Separate groups of Npc1^−/− and Npc1^+/+ mice were left untreated, as controls.

[2] = test system: fibroblast cell line from an NPC patient; experiment: Relative lysosomal volume via LysoTracker, NPC fibroblasts; assay type: cell-based, human; conditions: 1 mM
Method: A fibroblast cell line from an NPC patient was treated for 3 days with N-acetyl-DL-leucine (1 mM) and relative lysosomal volume was quantified via LysoTracker, a fluorescent dye that accumulates in acidic organelles. Increased LysoTracker fluorescence is indicative of an increase in lysosomal size and/or number, and is a hallmark of NPC cells.

[3] = test system: frontotemporal dementia with parkinsonism patient; experiment: Case study, frontotemporal dementia with parkinsonism; assay type: in vivo, human; conditions: frontotemporal dementia with parkinsonism
Description: After approximately one month of acetyl-leucine treatment, medication was stopped and the patient was re-examined 13 days later.

[4] = test system: Tay-Sachs disease patients; experiment: Case studies, Tay-Sachs disease patients (SARA, SCAFI, MoCA); assay type: in vivo, human
Description: For example, to evaluate overall neurological status, mDRS, a four-domain scale (ambulation, manipulation, language and swallowing), may be applied. Cerebellar function may be evaluated using SARA, an eight-item clinical rating scale (gait, stance, sitting, speech, fine motor function and taxis; range 0-40, where 0 is the best neurological status and 40 the worst), and SCAFI, comprising the 8-m-Walking-Time (8 MW; performed by having patients walking twice as quickly as possible from one line to another excluding turning), 9-Hole-Peg-Test (9HPT) and the number of “PATA” repetitions over 10 s. Subjective impairment and quality of life may be evaluated using the EQ-5D-5L questionnaire and VAS. To assess ocular motor function, 3-dimensional videooculography (EyeSeeCam) may be used to measure the peak velocity of saccades, gain of smooth pursuit, peak slow phase velocity of gaze-evoked nystagmus (gaze-holding function), peak slow phase velocity of optokinetic nystagmus, and gain of horizontal vestibulo-ocular reflex. To evaluate the cognitive state, WAIS-R or WISC-IV, and MoCA, assessing different cognitive domains, including attention and concentration, executive functions, memory, language, visuoconstructional skills, conceptual thinking, calculations, and orientation with a maximum of 30 points and a cut-off score of 26, may be used. The skilled person will know how to perform these and other such tests.
Before treatment was commenced, examination of the patient indicated a Scale for Assessment and Rating of Ataxia (SARA) score of 15.5/40. In addition, results from the patient's Spinocerebellar Ataxia Functional Index (SCAFI) analysis were: • Mean 8-meters Walking Test (8 MW): 21.6 s • MW 9-Hole Pegboard Test Dominant (9HPTD) (right): 48.3 s • MW 9-Hole Pegboard Test Non-Dominant (9HPTND): 44.9 s • MW PATA Word Test: 20 • Montreal Cognitive Assessment (MoCA): 18/30
The day following this examination, the patient was started on therapy with acetyl-leucine, at a dose of 3 g per day for the first week, followed by a dose of 5 g per day for the second week onwards.
The day of the examination, the patient was started on therapy with acetyl-leucine at a dose of 3 g per day for the first week, followed by a dose of 5 g per day for the second week onwards.
The patient was started on therapy with acetyl-leucine at a dose of 1.5 g per day for the first week, followed by a dose of 3 g per day for the second week onwards.

[5] = test system: downbeat nystagmus patients; experiment: Case studies, downbeat nystagmus patients; assay type: in vivo, human; conditions: downbeat nystagmus Patient 2
[6] = test system: Npc1−/− and Npc1+/+ mice; experiment: Gait analysis (CatWalk), NPC mouse study; assay type: in vivo; conditions: 0.1 g/kg from weaning, eight weeks of age
Method: Separate groups of Npc1^−/− and Npc1^+/+ mice were left untreated, as controls. Gait analysis was performed on mice at eight weeks of age using a CatWalk®15.0 system according to manufacturer's instructions (Noldus, Nottingham, UK). Five runs were recorded per animal. CatWalk® parameters measured were: • 1. Stand Mean: average duration (s) of paws in contact with glass plate; • 2. Step Cycle: duration (s) between two consecutive contacts of the same paw; • 3. Duty Cycle: percentage of time paws in contact with plate compared with time to complete a step cycle; • 4. Step Sequence (AB): percentage of time spent walking in LF-RH-RF-LH alternating pattern (LF: left front; RH: right hind; RF: right front; LH left hind); • 5. Cadence: step per seconds in a trial; • 6. Diagonal Support: percentage of time with simultaneous contact of diagonal paws with the glass plate (RF&LH or RH&LF). Motor Function Analysis

[7] = test system: corticobasal syndrome patient; experiment: Case study, corticobasal syndrome; assay type: in vivo, human
Method: Gait analysis was performed before treatment commenced.

[8] = test system: patients with cerebellar ataxia; conditions: cited from earlier work
[9] = test system: Tay-Sachs disease patient fibroblasts; experiment: Glycosphingolipid (GSL) levels by HPLC, Tay-Sachs fibroblasts; assay type: cell-based, human; conditions: 1 mM for 6 days, p<0.05

CC(=O)NC(CC(C)C)C(=O)O (racemic) [acetyl-DL-leucine]
Delay of discernible indication of disease vs untreated Npc1−/− mice ([1]; Npc1−/− mice treated from weaning): two
Lifespan ([1]; Npc1−/− mouse, 0.1 g/kg from 3 weeks of age): statistically significant increase in lifespan
LysoTracker fluorescence (lysosomal volume) ([2]; fibroblasts from NPC patient of mild clinical severity): significant decrease in LysoTracker fluorescence
LysoTracker fluorescence (lysosomal volume) ([2]; fibroblasts from additional NPC patients of variable clinical severity, 72 hours): replicated
Gait ([3]; 5 gram per day, approximately one month of treatment): significant improvement of gait
Symptoms after suspension of treatment ([3]; re-examined 13 days after stopping): symptoms worsened
Speech ([3]; under therapy): improvement of speech
Falls ([3]; under therapy, before 2-3 falls per month): falls stopped
Overall symptoms ([4]; Tay-Sachs Patient 1): improvement in symptoms
SARA ([4]; Tay-Sachs Patient 1, 5 g per day, after 4 months, baseline 15.5/40): 17/40
MoCA ([4]; Tay-Sachs Patient 1, after 4 months, baseline 18/30): 22/30
PATA ([4]; Tay-Sachs Patient 1, after 4 months, baseline 20): 21
8MWT ([4]; Tay-Sachs Patient 1, after 4 months, baseline 21.6 sec): 25.49 s
9HPTND ([4]; Tay-Sachs Patient 1, after 4 months, baseline 44.9 sec): 47.09 s
9HPTD ([4]; Tay-Sachs Patient 1, after 4 months, baseline 48.3 sec): 48.67 s
Clinical observation ([4]; Tay-Sachs Patient 1, after four months): stable condition with slightly improved cognitive function but had deterioration of stance, gait and fine motor function
Clinical observation ([4]; Tay-Sachs Patient 1, after one month): improved fine motor skills and reduced hand tremor
MoCA ([4]; Tay-Sachs Patient 1, after one month, baseline 18/30): 21/30
PATA ([4]; Tay-Sachs Patient 1, after one month, baseline 20): 22
8MWT ([4]; Tay-Sachs Patient 1, after one month, baseline 21.6 sec): 7 s
9HPTND ([4]; Tay-Sachs Patient 1, after one month, baseline 44.9 sec): 40.1 s
9HPTD ([4]; Tay-Sachs Patient 1, after one month, baseline 48.3 sec): 45.9 s
SARA ([4]; Tay-Sachs Patient 2, 5 g per day, after one month, baseline 10.5/40): 5/40
Clinical observation ([4]; Tay-Sachs Patient 2, after one month): increased enunciation, improved postural stability, and enhanced cognitive function
8MWT ([4]; Tay-Sachs Patient 2, after one month, baseline 12.5 sec): 9.55 s
PATA ([4]; Tay-Sachs Patient 2, after one month, baseline 18): 17
MoCA ([4]; Tay-Sachs Patient 2, after one month, baseline 21/30): 25/30
9HPTD ([4]; Tay-Sachs Patient 2, after one month, baseline 21.5 sec): 34.97 s
9HPTND ([4]; Tay-Sachs Patient 2, after one month, baseline 35.5 sec): 39.34 s
SARA ([4]; Tay-Sachs Patient 3, 3 g per day, after one month, baseline 36/40): 33/40
Clinical observation ([4]; Tay-Sachs Patient 3, after one month): increased fine motor skills
mRDS ([4]; Tay-Sachs Patient 3, after one month, baseline 18/24): 16/24
EQ-5D-5L visual scale ([4]; Tay-Sachs Patient 3, after one month, baseline 50): 60
8MWT ([4]; Tay-Sachs Patient 3, after one month, with support of one arm, baseline 18.1 (only with strong support)): 11.75 (with support
Self-chosen velocity (gait analysis) ([5]; about one month after stopping treatment, decrease from 85): 72 cm/s
Maximal gait velocity ([5]; about one month after stopping treatment, decrease from 155): 113 cm/s
Self-chosen velocity (gait analysis) ([5]; on treatment, increase from 56): 85 cm/s
Gait vs untreated littermates [6]: significantly improved gait
Clinical observation ([7]; 5 g per day, after 20 days): improvement of dizziness symptoms and significant reduction in the frequency of falls
Coefficient of variation (temporal) ([7]; after 20 days of treatment, before 3.9): 3.4
Track width ([7]; after 20 days of treatment, before 12.1): 12.3 cm
Functional Gait Assessment ([7]; after 20 days of treatment, before 13/30): 18/30
Double stance ([7]; after 20 days of treatment, before 29.8): 26.6%
speed ([7]; after 20 days of treatment, before 63): 92 cm/s
Step cycle length ([7]; after 20 days of treatment, before 84): 104 cm
cadence ([7]; after 20 days of treatment, before 90): 106 steps/minute
Max. speed ([7]; after 20 days of treatment, before 131): 152 cm/s
Symptoms after suspension of treatment ([7]; two days after suspension, after 8 weeks of treatment): increase of dizziness symptoms
PET study in patients with ataxia ([8]; Becker-Bense et al. (2015)): increased metabolism in the midbrain and lower brainstem in responders
Cerebellar ataxia, another case series ([8]; Pelz et al. (2015)): did not find benefit
Quantitative gait analysis ([8]; Schniepp et al. (2015)): improved temporal gait variability
Cerebellar ataxia, case series ([8]; Strupp et al. (2013)): symptomatic improvement of cerebellar ataxia
GSL storage (decrease) [9]: statistically significant
